Data reported in patent US20050084500A1, “Growth promoter composition for animals” (priority 2001, published 2005).
Like-named read-outs stand apart in the source and are kept apart here.

Legend:
[1] = format: in vivo; conditions: for FCR: feed conversion ratio per trial group; for FCR / Mortality: piglets 7-20 kg; for Mortality: whole trial; for Number of veterinary treatments: sum of all treatments performed on the animals during the total period of the trial; for Daily growth: weaned piglets, 7-20 kg, fed ad libitum
From the text: The present example relates to the effects of a composition according to the invention comprising a fungus at and least one growth promoting element on piglet performance of piglets in the phase 7-20 kg.
Commercial available weaning and starter feeds were used. During the first 2 weeks, a weaning feed was given to the piglets. From the third week till the end of the trial, i.e. at an average weight of 20 kg, the piglets received a starter feed. The trial feeds used are illustrated in table 2. During the whole trial period the piglets were fed ad libitum. The piglets under study were 120 weaned barrows and sows, with an age of 28 days at weaning. In the stable, 12 pens were present which contained each 10 piglets. For each trial, 3 replicates of 10 piglets were used. Ventilation and heating was automatically controlled. In each pen, 1 drinking nipple was present for water supply. Piglets were distinguished and weighed individually. They were allocated randomly to the different groups so that the average weight of each group was equal. A total of 120 animals was monitored. The following parameters were monitored during the trial: • the feed intake per trial group (measured at the end of the trial) • the weight of the individual animals (was measured at the beginning and at the end of the trial) • the feed conversion ratio per trial group was calculated • veterinary treatments and • mortality.

[2] = Influence of Lentinus edodes on the zootechnic performance of poultry (feeding trial); format: in vivo, chickens; conditions: Lentinus edodes at 0.5% of feed where present; for FCR: feed conversion ratio, chickens, end of trial; for Daily growth: one day old chickens, feed ad libitum
From the text: 20×40 one day old chickens were provided with following feeds: control feed, control feeds supplemented with a growth-promoting component, control feed supplemented with 0.5% fungi (Lentinus edodes) and control feed supplemented with a growth-promoting component and with 0.5% fungi (Lentinus edodes). As used herein, the term “control feed” refers to a standard animal feed for meat-producing animals, i.e. feed that can be used in the animal husbandry field and is suitable to be fed to meat-producing animals to supply part or all of the meat-producing animal's nutrient requirements. Water and feed were supplied ad libitum. At the end of the trial, chickens were weighed and feed conversion ratio's were determined (Table 1). Microbial contents in the gastrointestinal tract were determined by plate counting.

Compound	FCR [1]	Mortality [1]	Number of veterinary treatments [1]	Daily growth [1]	FCR [2]	Daily growth [2]
COC[C@H]1O[C@@H](OC2OC[C@@H]3O[C@]4(O[C@H]3[C@H]2OC(=O)C(C)C)O[C@H](C)[C@@](O)(C(C)=O)[C@@H]2OCO[C@H]24)[C@@H](OC)[C@@H](O)[C@@H]1O[C@@H]1O[C@H](C)[C@H](OC)[C@H](O[C@H]2C[C@@]3(C)OC4(C[C@@H](O)[C@H](O[C@H]5C[C@@H](O)[C@H](OC(=O)c6c(C)c(Cl)c(O)c(Cl)c6OC)[C@@H](C)O5)[C@@H](C)O4)O[C@@H]3[C@@H](C)O2)[C@H]1O (stereo partly drawn) [control + Avilamycin, Avilamycin]	1.65	3.3%	25	365 g/pig/day	1.59	53.99 g/chicken/day
OP(O)O [control + phophorous acid, phophorous acid]	1.69	6.6%	30	346 g/pig/day	1.56	52.23 g/chicken/day
O=CO [control + formic acid, formic acid]	1.69	10.0%	28	351 g/pig/day	1.55	52.18 g/chicken/day
CC[C@@H](C(=O)[C@@H](C)[C@@H](O)[C@H](C)[C@@H]1O[C@@H]([C@@H](CC)C(=O)O)CC[C@@H]1C)[C@H]1O[C@]2(C=C[C@@H](O)[C@]3(CC[C@@](C)([C@H]4CC[C@](O)(CC)[C@H](C)O4)O3)O2)[C@H](C)C[C@@H]1C [control + Salinomycine, Salinomycine]	1.70	6.6%	26	362 g/pig/day	1.60	54.06 g/chicken/day
inulin [control + inulin]	1.78	10%	32	330 g/pig/day	1.65	51.09 g/chicken/day
